From ChEMBL document CHEMBL3885881, “DrugMatrix”

Organism: Rattus norvegicus
Assay: DrugMatrix - Regimen: Daily Repeat
Type: toxicity, organism-based, Sprague-Dawley
Design: regimen Daily Repeat, gender Male, age 6-8 weeks
Conditions: in vivo, po, 750 mg/kg, route oral GAVAGE, dose level High, vehicle .5 % CMC; for BASOPHIL / EOSINOPHIL / ERYTHROCYTE COUNT / HEMATOCRIT / HEMOGLOBIN / LEUKOCYTE COUNT / LYMPHOCYTE / MEAN CORPUSCULAR HEMOGLOBIN / MEAN CORPUSCULAR HEMOGLOBIN CONCENTRATION / MEAN CORPUSCULAR VOLUME / MONOCYTE / NEUTROPHIL / PLATELET COUNT: tissue Blood; for ALANINE AMINOTRANSFERASE / ALBUMIN / ALKALINE PHOSPHATASE / ASPARTATE AMINOTRANSFERASE / BLOOD UREA NITROGEN / CARBON DIOXIDE / CHLORIDE / CHOLESTEROL / CREATINE PHOSPHOKINASE / CREATININE / GLUCOSE / LACTATE DEHYDROGENASE / LIPASE / PHOSPHORUS / POTASSIUM / SODIUM / TOTAL BILIRUBIN / TOTAL PROTEIN / URIC ACID: tissue Plasma

SMILES: Cc1ccc([N+](=O)[O-])cc1 [4-NITROTOLUENE]
- BASOPHIL (96 h, time 4 day): 0.3%
- EOSINOPHIL (96 h, time 4 day): 0.63%
- ERYTHROCYTE COUNT (96 h, time 4 day): 6.55 x10E6/uL
- HEMATOCRIT (96 h, time 4 day): 41.57%
- HEMOGLOBIN (96 h, time 4 day): 12.83 G/DL
- LEUKOCYTE COUNT (96 h, time 4 day): 12.7 x10E3/uL
- LYMPHOCYTE (96 h, time 4 day): 82.73%
- MEAN CORPUSCULAR HEMOGLOBIN (96 h, time 4 day): 19.6 pg
- MEAN CORPUSCULAR HEMOGLOBIN CONCENTRATION (96 h, time 4 day): 30.9 G/DL
- MEAN CORPUSCULAR VOLUME (96 h, time 4 day): 63.5 fL
- MONOCYTE (96 h, time 4 day): 1.93%
- NEUTROPHIL (96 h, time 4 day): 13.9%
- PLATELET COUNT (96 h, time 4 day): 1261.33 x10E3/uL
- ALANINE AMINOTRANSFERASE (96 h, time 4 day): 28.33 u/L
- ALBUMIN (96 h, time 4 day): 3.93 G/DL
- ALKALINE PHOSPHATASE (96 h, time 4 day): 300 u/L
- ASPARTATE AMINOTRANSFERASE (96 h, time 4 day): 82.67 u/L
- BLOOD UREA NITROGEN (96 h, time 4 day): 18.67 mg/dL
- CARBON DIOXIDE (96 h, time 4 day): 25.33 mmol/L
- CHLORIDE (96 h, time 4 day): 106 MEQ/L
- CHOLESTEROL (96 h, time 4 day): 90 mg/dL
- CREATINE PHOSPHOKINASE (96 h, time 4 day): 852 u/L
- CREATININE (96 h, time 4 day): 0.4 mg/dL
- GLUCOSE (96 h, time 4 day): 175.33 mg/dL
- LACTATE DEHYDROGENASE (96 h, time 4 day): 320.67 u/L
- LIPASE (96 h, time 4 day): 11 u/L
- PHOSPHORUS (96 h, time 4 day): 12.03 mg/dL
- POTASSIUM (96 h, time 4 day): 6.37 MEQ/L
- SODIUM (96 h, time 4 day): 147 MEQ/L
- TOTAL BILIRUBIN (96 h, time 4 day): 0.4 mg/dL
- TOTAL PROTEIN (96 h, time 4 day): 6.07 G/DL
- URIC ACID (96 h, time 4 day): 1.5 mg/dL
- BASOPHIL ([…], time 6 day): 0.2%
- EOSINOPHIL ([…], time 6 day): 0.4%
- ERYTHROCYTE COUNT ([…], time 6 day): 6.89 x10E6/uL
- HEMATOCRIT ([…], time 6 day): 50%
- HEMOGLOBIN ([…], time 6 day): 14.85 G/DL
- LEUKOCYTE COUNT ([…], time 6 day): 11.06 x10E3/uL
- LYMPHOCYTE ([…], time 6 day): 89%
- MEAN CORPUSCULAR HEMOGLOBIN ([…], time 6 day): 21.5 pg
- MEAN CORPUSCULAR HEMOGLOBIN CONCENTRATION ([…], time 6 day): 29.65 G/DL
- MEAN CORPUSCULAR VOLUME ([…], time 6 day): 72.6 fL
- MONOCYTE ([…], time 6 day): 0.95%
- NEUTROPHIL ([…], time 6 day): 9%
- PLATELET COUNT ([…], time 6 day): 1574 x10E3/uL
- BASOPHIL ([…], time 14 day): 0.68%
- EOSINOPHIL ([…], time 14 day): 0.52%
- ERYTHROCYTE COUNT ([…], time 14 day): 7.67 x10E6/uL
- HEMATOCRIT ([…], time 14 day): 48.12%
- HEMOGLOBIN ([…], time 14 day): 15.24 G/DL
- LEUKOCYTE COUNT ([…], time 14 day): 10.23 x10E3/uL
- LYMPHOCYTE ([…], time 14 day): 81.12%
- MEAN CORPUSCULAR HEMOGLOBIN ([…], time 14 day): 19.9 pg
- MEAN CORPUSCULAR HEMOGLOBIN CONCENTRATION ([…], time 14 day): 31.7 G/DL
- MEAN CORPUSCULAR VOLUME ([…], time 14 day): 62.76 fL
- MONOCYTE ([…], time 14 day): 2.12%
- NEUTROPHIL ([…], time 14 day): 14.52%
- PLATELET COUNT ([…], time 14 day): 1133.4 x10E3/uL
- ALANINE AMINOTRANSFERASE ([…], time 6 day): 39 u/L
- ALBUMIN ([…], time 6 day): 4.2 G/DL
- ALKALINE PHOSPHATASE ([…], time 6 day): 351.67 u/L
- ASPARTATE AMINOTRANSFERASE ([…], time 6 day): 89 u/L
- BLOOD UREA NITROGEN ([…], time 6 day): 16.67 mg/dL
- CARBON DIOXIDE ([…], time 6 day): 29.33 mmol/L
- CHLORIDE ([…], time 6 day): 106 MEQ/L
- CHOLESTEROL ([…], time 6 day): 68 mg/dL
- CREATINE PHOSPHOKINASE ([…], time 6 day): 701.67 u/L
- CREATININE ([…], time 6 day): 0.6 mg/dL
- GLUCOSE ([…], time 6 day): 151.33 mg/dL
- LACTATE DEHYDROGENASE ([…], time 6 day): 127 u/L
- LIPASE ([…], time 6 day): 10.67 u/L
- PHOSPHORUS ([…], time 6 day): 11.57 mg/dL
- POTASSIUM ([…], time 6 day): 6.27 MEQ/L
- SODIUM ([…], time 6 day): 149.33 MEQ/L
- TOTAL BILIRUBIN ([…], time 6 day): 0.33 mg/dL
- TOTAL PROTEIN ([…], time 6 day): 6.5 G/DL
- URIC ACID ([…], time 6 day): 1.4 mg/dL
- ALANINE AMINOTRANSFERASE ([…], time 14 day): 40.6 u/L
- ALBUMIN ([…], time 14 day): 4.04 G/DL
- ALKALINE PHOSPHATASE ([…], time 14 day): 340.4 u/L
- ASPARTATE AMINOTRANSFERASE ([…], time 14 day): 91.2 u/L
- BLOOD UREA NITROGEN ([…], time 14 day): 18.2 mg/dL
- CARBON DIOXIDE ([…], time 14 day): 28.6 mmol/L
- CHLORIDE ([…], time 14 day): 105.6 MEQ/L
- CHOLESTEROL ([…], time 14 day): 66.6 mg/dL
- CREATINE PHOSPHOKINASE ([…], time 14 day): 631.6 u/L
- CREATININE ([…], time 14 day): 0.56 mg/dL
- GLUCOSE ([…], time 14 day): 157.4 mg/dL
- LACTATE DEHYDROGENASE ([…], time 14 day): 226.6 u/L
- LIPASE ([…], time 14 day): 13.6 u/L
- PHOSPHORUS ([…], time 14 day): 12.16 mg/dL
- POTASSIUM ([…], time 14 day): 6.96 MEQ/L
- SODIUM ([…], time 14 day): 149.8 MEQ/L
- TOTAL BILIRUBIN ([…], time 14 day): 0.38 mg/dL
- TOTAL PROTEIN ([…], time 14 day): 6.12 G/DL
- URIC ACID ([…], time 14 day): 1.8 mg/dL
